Experimental data as given in patent US7407988B2, “Carbamic acid compounds comprising a sulfonamide linkage as HDAC inhibitors” (Topotarget UK Limited, priority 2000, dated 2008).
Counter-ions that a name gives are not always drawn. Like-named read-outs stand apart in the source and are kept apart here.

Tests used:
[1] = test system: K11 HPV E7 transformed human keratinocyte line; assay: Secondary assay: cell proliferation WST-1, K11; type: cell-based; conditions: Homo sapiens, Keratinocyte, Table 2, 48 h, read-out: Cell Proliferation Inhibition WST-1 (IC50 unless otherwise specified) K11
[2] = test system: HeLa cells; assay: Secondary assay: cell proliferation WST-1, HeLa; type: cell-based; conditions: Homo sapiens, read-out: Cell Proliferation Inhibition WST-1 (IC50 unless otherwise specified) HeLa
[3] = test system: JURKAT human T-cell line; assay: Secondary assay: cell proliferation WST-1, Jurkat; type: cell-based; conditions: Homo sapiens, Table 2, 48 h, read-out: Cell Proliferation Inhibition WST-1 (IC50 unless otherwise specified) Jurkat
[4] = test system: HDAC (HeLa cell extract); assay: Primary assay: deacetylase activity, HeLa cell extract as source of HDAC; type: biochemical, human; conditions: for HDAC Inhibition HeLa, % @ 500: Table 1, @ 500
Source text: Briefly, this assay relies on the release of radioactive acetate from a radioactively labelled histone fragment by the action of HDAC enzyme. Test compounds, which inhibit HDAC, reduce the yield of radioactive acetate. Signal (e.g., scintillation counts) measured in the presence and absence of a test compound provide an indication of that compound's ability to inhibit HDAC activity. Decreased activity indicates increased inhibition by the test compound.
The histone fragment was an N-terminal sequence from histone H4, and it was labelled with radioactively labelled acetyl groups using tritiated acetylcoenzyme A (coA) in conjunction with an enzyme which is the histone acetyltransferase domain of the transcriptional coactivator p300. […] The acetylated peptide was then separated from free acetyl coA by size exclusion chromatography on Sephadex G-15 (Sigma G-15-120), using distilled H2O as the mobile phase.
After purification of the radiolabelled histone fragment, it was incubated with a source of HDAC (e.g., an extract of HeLa cells (a rich source of HDAC), recombinantly produced HDAC1 or HDAC2) and any released acetate was extracted into an organic phase and quantitatively determined using scintillation counting. By including a test compound with the source of HDAC, that compound's ability to inhibit the HDAC was determined.
Two cell volumes of extraction buffer were used, and particulate material was centrifuged out (20800 g, 4° C., 10 min). The supernatant extract having deacetylase activity was aliquotted and frozen for storage.
A source of HDAC (e.g., 2 μL of crude HeLa extract, 5 μL of HDAC1 or HDAC2; in elution buffer, as above) was incubated with 3 μL of radioactively labelled peptide along with appropriate dilutions of candidate compounds (1.5 μL) in a total volume of 150 μL of buffer (20 mM Tris pH 7.4, 10% glycerol). The reaction was carried out at 37° C. for one hour, after which the reaction was stopped by adding 20 μL of 1 M HCl/0.4 M sodium acetate. […] Radioactivity was measured using a Tri-Carb 21 00TR Liquid Scintillation Analyzer (Packard).
Percent activity (% activity) for each test compound was calculated as: % activity={(S^C−B)/(S°−B)}×100 wherein S^C denotes signal measured in the presence of enzyme and the compound being tested, S° denotes signal measured in the presence of enzyme but in the absence of the compound being tested, and B denotes the background signal measured in the absence of both enzyme and compound being tested.

[5] = Table 1, read-out: HDAC Inhibition (IC50 unless otherwise specified) HeLa
[6] = comparative tables, HDAC inhibition, read-out: HeLa IC50

SMILES	melting point	IC50 ([2]; Table 2, 48 h)	IC50 [3]	IC50 [4, 5]	HDAC Inhibition HeLa, % @ 500 [4]	also measured
COc1ccc(NS(=O)(=O)c2cccc(/C=C/C(=O)NO)c2)cc1OC [PX117782, 3-[3-(3,4-Dimethoxy-phenylsulfamoyl)-phenyl]-N-hydroxy-acrylamide]	191 °C	2900 nM	350 nM	38 nM	–	IC50 [1]: 15600 nM
O=C(CCCCCCCS(=O)(=O)N(Cc1ccccc1)c1ccccc1)NO [PX117412, 8-[(Benzylanilino)sulfonyl]-N-hydroxyoctanamide]	119 to 119.5 °C	–	–	–	54% @ 500	–
O=C(/C=C/c1cccc(S(=O)(=O)NCc2ccc3c(c2)OCO3)c1)NO [PX117226, 3-{3-[(Benzo[1,3]dioxol-5-ylmethyl)-sulfamoyl]-phenyl}-N-hydroxy-acrylamide]	163 °C	500 nM	100 nM	26.3 nM	–	IC50 [1]: 2800 nM
COc1ccc(S(=O)(=O)Nc2ccc(/C=C/C(=O)NO)cc2)cc1OC [PX117794, (E)-N-Hydroxy-3-[4-(3,4-dimethoxyphenylsulfonylamino)-phenyl]-2-propenamide]	178.5 to 179 °C	3300 nM	600 nM	24 nM	–	IC50 [1]: 2300 nM
CN(c1ccccc1)S(=O)(=O)CCCCCCCC(=O)NO [PX117411, N-Hydroxy-8-[(methylanilino)sulfonyl]octanamide]	65.5 to 66.5 °C	–	–	–	39% @ 500	–
O=C(/C=C/C#Cc1cccc(S(=O)(=O)Nc2ccccc2)c1)NO [PX116238, (E)-5-(3-Phenylsulfamoylphenyl)pent-2-en-4-ynoic acid hydroxyamide]	88 to 90 °C	800 nM	–	14 nM	–	IC50 [4, 6]: 14 nM
O=C(CCCCS(=O)(=O)Nc1ccccc1)NO [PX117233, 5-(Anilinosulfonyl)-N-hydroxypentanamide]	128 to 129 °C	–	–	–	21% @ 500	–
O=C(/C=C/c1ccc(NS(=O)(=O)c2ccccc2)cc1)NO [PX106499, 3-(4-Benzenesulfonylaminophenyl)-N-hydroxyacrylamide]	–	3800 nM	–	35 nM	–	IC50 [4, 6]: 35 nM
O=C(CCCCCNS(=O)(=O)/C=C/c1ccccc1)NO [PX117429, 6-(2-Phenylethenesulfonylamino)hexanoic acid hydroxyamide]	107 to 109 °C	–	–	–	73% @ 500	–
O=C(CCCCCNS(=O)(=O)c1ccccc1)NO [PX106522, 6-Benzenesulfonylaminohexanoic acid hydroxyamide]	80 to 82 °C	16700 nM	–	1580 nM	–	IC50 [4, 6]: 1600 nM
O=C(CCCCCCS(=O)(=O)Nc1ccccc1)NO [PX117236]	94 to 95 °C	–	–	–	54% @ 500	–
O=C(/C=C/c1cccc(S(=O)(=O)NC2Cc3ccccc3C2)c1)NO [PX117735, N-Hydroxy-3-[3-(indan-2-ylsulfamoyl)-phenyl]-acrylamide]	164 °C	–	74 nM	6 nM	–	IC50 [1]: 3100 nM
O=C(CCCCS(=O)(=O)Nc1ccc2ccccc2c1)NO [PX117235, N-Hydroxy-5-[(2-naphthylamino)sulfonyl]pentanamide]	163 to 164 °C	–	–	–	40% @ 500	–
O=C(/C=C/c1cccc(S(=O)(=O)Nc2ccccc2-c2ccccc2)c1)NO [PX117713, 3-[3-(Biphenyl-2-ylsulfamoyl)phenyl]-N-hydroxy-acrylamide]	–	5100 nM	620 nM	138 nM	–	IC50 [1]: 9200 nM
O=C(CCCCCS(=O)(=O)N(Cc1ccccc1)c1ccccc1)NO [PX117414, 6-[(Benzylanilino)sulfonyl]-N-hydroxyhexanamide]	129 to 129.5 °C	–	–	–	46% @ 500	–
CN(c1ccccc1)S(=O)(=O)CCCCCC(=O)NO [PX117410, N-Hydroxy-6-[(methylanilino)sulfonyl]hexanamide]	121 to 122 °C	–	–	–	40% @ 500	–
CN(c1ccccc1)S(=O)(=O)CCCCCCC(=O)NO [PX117260, N-Hydroxy-7-[(methylanilino)sulfonyl]heptanamide]	69 to 70 °C	–	–	–	35% @ 500	–
O=C(CCCCCS(=O)(=O)Nc1ccccc1)NO [PX117234, 6-(Anilinosulfonyl)-N-hydroxyhexanamide]	97 to 98 °C	–	–	–	59% @ 500	HeLa, % @ 500 nM ([4]; comparative tables): 59% @ 500 nM
COc1cc(CNS(=O)(=O)c2cccc(/C=C/C(=O)NO)c2)cc(OC)c1OC [PX117778, N-Hydroxy-3-[3-(3,4,5-trimethoxy-benzylsulfamoyl)-phenyl]-acrylamide]	–	–	> 10000 nM	> 400 nM	–	IC50 [1]: > 30000 nM
O=C(CCCCCNS(=O)(=O)c1cccnc1)NO [PX117432, 6-(Pyridine-3-sulfonylamino)hexanoic acid hydroxyamide oxalate]	–	–	–	–	24% @ 500	–
O=C(/C=C/c1ccc(S(=O)(=O)Nc2ccc3ccccc3c2)cc1)NO [PX117736, N-Hydroxy-3-[4-(naphthalen-2-ylsulfamoyl)-phenyl]-acrylamide]	198.5 to 199.5 °C	–	120 nM	6 nM	–	IC50 [1]: 800 nM
COc1ccc(CCNS(=O)(=O)c2cccc(/C=C/C(=O)NO)c2)cc1OC [PX117779, 3-{3-[2-(3,4-Dimethoxy-phenyl)-ethylsulfamoyl]-phenyl}-N-hydroxy-acrylamide]	–	9600 nM	1100 nM	250 nM	–	IC50 [1]: 1400 nM
O=C(CCCCCNS(=O)(=O)c1cccnc1)NO (as salt: oxalate) [PX117432, 6-(Pyridine-3-sulfonylamino)hexanoic acid hydroxyamide oxalate]	132 to 134 °C	–	–	–	–	–
CN(c1ccccc1)S(=O)(=O)c1ccccc1/C=C/C(=O)NO [PX117448, N-Hydroxy-3-[2-(methyl-phenyl-sulfamoyl)-phenyl]-acrylamide]	144.5 to 145.5 °C	–	–	–	3% @ 500	IC50 ([2]; 48 h): 88900 nM; HeLa, % @ 500 nM ([4]; comparative tables): 3% @ 500 nM
O=C(/C=C/c1ccc(S(=O)(=O)Nc2ccccc2)cc1)NO [PX117450, N-Hydroxy-3-(4-phenylsulfamoylphenyl)acrylamide]	176 to 177.5 °C	1600 nM	–	20 nM	–	IC50 [4, 6]: 20 nM
O=C(/C=C/c1cccc(S(=O)(=O)NCc2cccnc2)c1)NO [PX117250, N-Hydroxy-3-{3-[(pyridin-3-ylmethyl)-sulfamoyl]-phenyl}-acrylamide]	191 °C	7800 nM	1000 nM	192 nM	–	–
O=C(/C=C/c1ccccc1S(=O)(=O)Nc1ccccc1)NO [PX116242, N-Hydroxy-3-(2-phenylsulfamoylphenyl)acrylamide]	205 to 206.5 °C	–	–	–	9% @ 500	HeLa, % @ 500 nM ([4]; comparative tables): 9% @ 500 nM
O=C(/C=C/c1ccccc1S(=O)(=O)Nc1cccc2ccccc12)NO [PX117447, N-Hydroxy-3-[2-(naphthalen-1-ylsulfamoyl)-phenyl]-acrylamide]	186 to 187 °C	–	–	–	3% @ 500	IC50 ([2]; 48 h): 77800 nM; HeLa, % @ 500 nM ([4]; comparative tables): 3% @ 500 nM
